Assay results published in patent US11203613B2, “Peptidomimetic proteasome inhibitors” (CORNELL UNIVERSITY, priority 2017, dated 2021).
Where “and” joins values, the source holds several entries; their conditions need not be identical. Identical values can stand only once. Like-named read-outs stand apart in the source and are kept apart here.

Key:
[1] = target: Human Constitutive (Hu C-20S) β5 Active Subunit (Homo sapiens, UniProt P28074); test: IC50 determination, human constitutive 20S proteasome β5c (suc-LLVY-AMC hydrolysis); type: biochemical
[2] = target: Mtb20SOG (Mycobacterium tuberculosis, UniProt P9WHT9); test: biochemical
[3] = Table 2, several values in a cell are repeat determinations, read-out: Hu c-20S IC50
[4] = Table 2, several values in a cell are repeat determinations
[5] = Table 3, IC50 against human constitutive β5 active subunit, read-out: Hu-C20S β5

Chain of Mtb20SOG (P9WHT9 58-291): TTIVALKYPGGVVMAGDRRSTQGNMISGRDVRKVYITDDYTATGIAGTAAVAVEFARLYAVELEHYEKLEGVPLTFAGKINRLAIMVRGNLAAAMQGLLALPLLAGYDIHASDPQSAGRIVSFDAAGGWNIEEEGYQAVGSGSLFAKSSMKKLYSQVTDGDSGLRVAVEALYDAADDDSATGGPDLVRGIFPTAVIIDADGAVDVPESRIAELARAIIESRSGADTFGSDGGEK

SMILES | IC50 [1, 3] | IC50 [2] | IC50 [2, 4] | IC50 [1, 5] [µM]
CC(NC(=O)C(CC(=O)N1CCCCC1C)NC(=O)C1CC(C)(C)C1)c1nc(-c2ccc(F)cc2F)c[nH]1 (stereo not drawn) [CF-503474] | 5.65 µM | 14 nM | – | –
CC[C@H]1CCCCN1C(=O)C[C@H](Nc1nc2ccccc2s1)C(=O)N[C@@H](C)c1nc2c(F)cccc2[nH]1 [CF-503445] | 1.19 µM | – | 1180 nM | –
Cc1cc(C(=O)N[C@@H](CC(=O)N2CCCC[C@@H]2C)C(=O)NC(C)c2nc3ccccc3[nH]2)no1 (stereo partly drawn) [drawing 395] | 71.6 µM | – | 549 nM and 331 nM | –
CC(NC(=O)C(CC(=O)N1CCCCC1C)NC(=O)OCc1ccccc1)c1nc2c(F)cccc2[nH]1 (stereo not drawn) [CF-503462] | 14.8 µM | 120 nM | – | –
CCS(=O)(=O)N[C@@H](CC(=O)N1CCCC[C@@H]1C)C(=O)N[C@@H](C)c1ncc(-c2ccc(F)cc2F)[nH]1 [CF-503144] | 28.2 µM | – | 1900 nM | –
CC[C@H]1CCCCN1C(=O)C[C@H](NC(=O)N1CCOCC1)C(=O)N[C@@H](C)c1nc2c(F)cccc2[nH]1 [CF-503453] | 4.45 µM | – | 4690 nM | –
CC[C@H]1CCCCN1C(=O)C[C@H](Nc1nc2cc(C)ccc2o1)C(=O)N[C@@H](C)c1nc2c(F)cccc2[nH]1 [CF-503357] | 1.9 µM | 260 nM | – | –
CC1CC(C(=O)N[C@@H](CC(=O)N2CCC[C@@H]2c2ccccc2)C(=O)NC(C)c2nc3ccccc3[nH]2)C1 (stereo partly drawn) [CF-503155] | 8.4 µM | 125 nM | – | –
C[C@H](NC(=O)N(CC(=O)N1CCCC[C@@H]1C)NC(=O)OC(C)(C)C)C(=O)NCc1ccc(F)cc1F [CF-503201] | 8.5 µM and > 8 µM | – | 8400 nM and > 8000 nM | –
C[C@H](NC(=O)N(CC(=O)N1CCCC[C@@H]1C)NC(=O)CCC(C)(C)C)c1ncc(-c2ccc(F)cc2F)[nH]1 [CF-503189] | 7.61 µM and 10.2 µM | – | 7380 nM and 8040 nM | –
CC(C)COC(=O)NC(CC(=O)N1CCCCC1C)C(=O)NC(C)c1nc2c(F)cccc2[nH]1 (stereo not drawn) [CF-503463] | 2.5 µM | 1140 nM | – | –
CC[C@H]1CCCCN1C(=O)C[C@H](Nc1nc(Cc2ccc(F)cc2)no1)C(=O)N[C@@H](C)c1nc2c(F)cccc2[nH]1 [CF-503419] | 1.36 µM and 1.2 µM | 257 nM and 319 nM | – | –
CC(C)CCC(=O)N[C@@H](CC(=O)N(C)C(C)C)C(=O)N[C@@H](C)c1ncc(-c2ccc(F)cc2F)[nH]1 [CF-503200] | 14.9 µM | – | 919 nM | –
C[C@H](NC(=O)[C@H](CC(=O)N1CCCC[C@@H]1C)NCC(=O)c1ccccc1)c1ncc(-c2ccc(F)cc2F)[nH]1 [CF-503145] | 15.2 µM | – | 10000 nM | –
CC[C@H]1CCCCN1C(=O)C[C@H](NC(=O)[C@@H]1C[C@H]1c1ccccc1)C(=O)N[C@@H](C)c1nc2c(F)cccc2[nH]1 [CF-503382] | 12 µM | – | 166 nM | –
CC[C@H]1CCCCN1C(=O)C[C@H](Nc1nc(C(C)C)no1)C(=O)NCc1nc2c(F)cccc2[nH]1 [CF-503417] | 3.6 µM and 2.99 µM | – | 1350 nM and 1770 nM | –
CC[C@H]1CCCCN1C(=O)C[C@H](NC(=O)N1CCCCC1)C(=O)N[C@@H](C)c1nc2c(F)cccc2[nH]1 [CF-503454] | 3 µM | – | 765 nM | –
CC[C@H]1CCCCN1C(=O)C[C@H](NC(=O)CCC(C)C)C(=O)N[C@@H](C)c1nc2c(F)cccc2[nH]1 [CF-503223] | 10.6 µM and 10.2 µM | 28 nM and 33 nM | – | –
CC(C)CCC(=O)N[C@@H](CC(=O)N1CCC[C@@H]1c1ccccc1)C(=O)N[C@@H](C)c1nc2ccccc2[nH]1 [CF-503150] | – | 47 nM and 45 nM and 50 nM and 69 nM and 59 nM and 42 nM | – | –
CC[C@H]1CCCCN1C(=O)C[C@H](NC(=O)C1CC2(CCC2)C1)C(=O)N[C@@H](C)c1nc2c(F)cccc2[nH]1 [CF-503458] | – | 7 nM and 11 nM | – | –

SMILES | IC50 [1, 3] | IC50 [2] | IC50 [2, 4] | IC50 [1, 5] [µM]
C[C@H](NC(=O)[C@H](CC(=O)N1CCCC[C@@H]1C)NC(=O)[C@H]1C[C@@H]1c1ccccc1)c1nc2c(F)cccc2[nH]1 [drawing 477] | – | – | 166 nM | –
CC(NC(=O)C(CC(=O)N1CCCCC1C)NC(=O)C1CC2(CCC2)C1)c1nc2c(F)cccc2[nH]1 (stereo not drawn) [CF-503459] | – | 13 nM and 20 nM | – | –
C[C@H](NC(=O)[C@H](CC(=O)N1CCCC1)NC(=O)CCc1ccccc1)C(=O)NCc1cccc2cn[nH]c12 [CF-503390] | – | 121 nM and 88 nM | – | –
CC[C@H]1CCCCN1C(=O)C[C@H](NS(=O)(=O)CCC(C)C)C(=O)N[C@@H](C)c1nc2c(F)cccc2[nH]1 [CEN-24, (S)-4-((S)-2-Ethylpiperidin-1-yl)-N—((S)-1-(4-fluoro-1H-benzo[d]imidazol-2-yl)ethyl)-2-((3-methylbutyl)sulfonamido)-4-oxobutanamide] | – | – | – | 17.8
Cc1cc(C(=O)N[C@@H](CC(=O)N2CCCC2)C(=O)N[C@@H](C)c2ncc(-c3ccc(F)cc3F)[nH]2)no1 [CEN-80, N—((S)-1-(((S)-1-(5-(2,4-Difluorophenyl)-1H-imidazol-2-yl)ethyl)amino)-1,4-dioxo-4-(pyrrolidin-1-yl)butan-2-yl)-5-methylisoxazole-3-carboxamide] | – | – | – | 16.7
CC[C@H]1CCCCN1C(=O)C[C@H](Nc1nc(Cc2ccc(F)cc2)no1)C(=O)N[C@@H](C)c1nc2c(F)cccc2[nH]1 [CEN-27, (S)-4-((S)-2-Ethylpiperidin-1-yl)-N—((S)-1-(4-fluoro-1H-benzo[d]imidazol-2-yl)ethyl)-2-((3-(4-fluorobenzyl)-1,2,4-oxadiazol-5-yl)amino)-4-oxobutanamide] | – | – | – | 1.4
C[C@H](NC(=O)[C@H](CC(=O)N1CCCC[C@@H]1C)NC(=O)CC1CCOCC1)c1ncc(-c2ccc(F)cc2F)[nH]1 [CEN-106, (S)—N—((S)-1-(5-(2,4-Difluorophenyl)-1H-imidazol-2-yl)ethyl)-4-((S)-2-methylpiperidin-1-yl)-4-oxo-2-(2-(tetrahydro-2H-pyran-4-yl)acetamido)butanamide] | – | – | – | 12.8
Cc1cc(C(=O)N[C@@H](CC(=O)N2CCC[C@@H]2c2ccccc2)C(=O)N[C@@H](C)c2nc3ccccc3[nH]2)no1 [CEN-53, N—((S)-1-(((S)-1-(1H-Benzo[d]imidazol-2-yl)ethyl)amino)-1,4-dioxo-4-((R)-2-phenylpyrrolidin-1-yl)butan-2-yl)-5-methylisoxazole-3-carboxamide] | – | – | – | 9.7
C[C@H](NC(=O)[C@H](CC(=O)N1CCCC[C@@H]1C)NCC(=O)c1ccccc1)c1ncc(-c2ccc(F)cc2F)[nH]1 [CEN-103, (S)—N—((S)-1-(5-(2,4-Difluorophenyl)-1H-imidazol-2-yl)ethyl)-4-((S)-2-methylpiperidin-1-yl)-4-oxo-2-((2-oxo-2-phenylethyl)amino)butanamide] | – | – | – | 15.2
C[C@H]1CCCCN1C(=O)C[C@H](NC(=O)C1CC2(C1)CC(F)(F)C2)C(=O)NC1(c2nc3cccc(F)c3[nH]2)CC1 (stereo in doubt) [CEN-62, 6,6-Difluoro-N—((S)-1-((1-(7-fluoro-1H-benzo[d]imidazol-2-yl)cyclopropyl)amino)-4-((S)-2-methylpiperidin-1-yl)-1,4-dioxobutan-2-yl)spiro[3.3]heptane-2-carboxamide] | – | – | – | 2.4
C[C@H](NC(=O)[C@H](CC(=O)N1CCCC[C@@H]1C)NC(=O)N(C)Cc1ccccc1)c1nc2c(F)cccc2[nH]1 [CEN-56, (S)-2-(3-Benzyl-3-methylureido)-N—((S)-1-(4-fluoro-1H-benzo[d]imidazol-2-yl)ethyl)-4-((S)-2-methylpiperidin-1-yl)-4-oxobutanamide] | – | – | – | 17.2
C[C@H](NC(=O)[C@H](CC(=O)N1CCC[C@@H]1c1ccccc1)NC(=O)CCCC(F)(F)F)c1nc2ccccc2o1 [CEN-66, N—((S)-1-(((S)-1-(Benzo[d]oxazol-2-yl)ethyl)amino)-1,4-dioxo-4-((R)-2-phenylpyrrolidin-1-yl)butan-2-yl)-5,5,5-trifluoropentanamide] | – | – | – | > 100
CC(C)CCC(=O)N[C@@H](CC(=O)N1CCCC[C@H]1C)C(=O)N[C@@H](C)c1ncc(-c2ccc(F)cc2F)[nH]1 [CEN-91, N—((S)-1-(((S)-1-(5-(2,4-Difluorophenyl)-1H-imidazol-2-yl)ethyl)amino)-4-((R)-2-methylpiperidin-1-yl)-1,4-dioxobutan-2-yl)-4-methylpentanamide] | – | – | – | 10.5
C[C@H](NC(=O)[C@H](CC(=O)N1CCCC[C@@H]1C)NC(=O)C1CC2(COC2)C1)c1nc2cccc(F)c2[nH]1 [CEN-43, N—((S)-1-(((S)-1-(7-Fluoro-1H-benzo[d]imidazol-2-yl)ethyl)amino)-4-((S)-2-methylpiperidin-1-yl)-1,4-dioxobutan-2-yl)-2-oxaspiro[3.3]heptane-6-carboxamide] | – | – | – | 13.8
C[C@H](NC(=O)[C@H](CC(=O)N1CCC[C@@H]1c1ccccc1)NC(=O)C1CC2(C1)CC(F)(F)C2)c1nc2ccccc2o1 [CEN-68, N—((S)-1-(((S)-1-(Benzo[d]oxazol-2-yl)ethyl)amino)-1,4-dioxo-4-((R)-2-phenylpyrrolidin-1-yl)butan-2-yl)-6,6-difluorospiro[3.3]heptane-2-carboxamide] | – | – | – | > 100
Cc1cc(C(=O)N[C@@H](CC(=O)N2CCC[C@@H]2c2ccccc2)C(=O)N[C@@H](C)c2ncc(-c3ccccc3F)[nH]2)no1 [CF-503108] | – | 13 nM | – | –
C[C@@H](NC(=O)[C@H](CC(=O)N1CCCC[C@@H]1C)NC(=O)CCC(C)(C)C)c1nc2ccccc2[nH]1 [CEN-37, N—((S)-1-(((R)-1-(1H-Benzo[d]imidazol-2-yl)ethyl)amino)-4-((S)-2-methylpiperidin-1-yl)-1,4-dioxobutan-2-yl)-4,4-dimethylpentanamide] | – | – | – | 17.3
O=C(N[C@@H](CC(=O)N1CCCC1C1CC1)C(=O)NC1(c2nc3cccc(F)c3[nH]2)CC1)C1CC2(C1)CC(F)(F)C2 (stereo partly drawn) [CEN-64, N-((2S)-4-(2-Cyclopropylpyrrolidin-1-yl)-1-((1-(7-fluoro-1H-benzo[d]imidazol-2-yl)cyclopropyl)amino)-1,4-dioxobutan-2-yl)-6,6-difluorospiro[3.3]heptane-2-carboxamide] | – | – | – | 2.4
Cc1ncc(C(=O)N[C@@H](CC(=O)N2CCCC[C@@H]2C)C(=O)N[C@@H](C)c2nc3c(F)cccc3[nH]2)s1 [CEN-30, N—((S)-1-(((S)-1-(4-Fluoro-1H-benzo[d]Imidazol-2-yl)ethyl)amino)-4-((S)-2-methylpiperidin-1-yl)-1,4-dioxobutan-2-yl)-2-methylthiazole-5-carboxamide] | – | – | – | 4.5
